Results as given in PMC6133773 (The Journal of organic chemistry, 2018).

Tests used:
IspD [1] = molecular target: T1, IspD (Escherichia coli, UniProt Q46893); assay: MESG coupled pyrophosphate assay, inhibition of MEP turnover; format: biochemical
T1 sequence (Q46893 2-236): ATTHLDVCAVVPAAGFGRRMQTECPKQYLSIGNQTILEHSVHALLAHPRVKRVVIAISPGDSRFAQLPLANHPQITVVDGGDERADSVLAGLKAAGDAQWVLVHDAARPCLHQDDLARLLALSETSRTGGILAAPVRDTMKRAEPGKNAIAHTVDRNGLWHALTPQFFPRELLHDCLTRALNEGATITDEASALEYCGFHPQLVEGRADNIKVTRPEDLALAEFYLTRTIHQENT

IspD [2] = molecular target: T2, IspD (Plasmodium falciparum, UniProt Q8I273); assay: as above; format: biochemical
T2 sequence (Q8I273 60-734): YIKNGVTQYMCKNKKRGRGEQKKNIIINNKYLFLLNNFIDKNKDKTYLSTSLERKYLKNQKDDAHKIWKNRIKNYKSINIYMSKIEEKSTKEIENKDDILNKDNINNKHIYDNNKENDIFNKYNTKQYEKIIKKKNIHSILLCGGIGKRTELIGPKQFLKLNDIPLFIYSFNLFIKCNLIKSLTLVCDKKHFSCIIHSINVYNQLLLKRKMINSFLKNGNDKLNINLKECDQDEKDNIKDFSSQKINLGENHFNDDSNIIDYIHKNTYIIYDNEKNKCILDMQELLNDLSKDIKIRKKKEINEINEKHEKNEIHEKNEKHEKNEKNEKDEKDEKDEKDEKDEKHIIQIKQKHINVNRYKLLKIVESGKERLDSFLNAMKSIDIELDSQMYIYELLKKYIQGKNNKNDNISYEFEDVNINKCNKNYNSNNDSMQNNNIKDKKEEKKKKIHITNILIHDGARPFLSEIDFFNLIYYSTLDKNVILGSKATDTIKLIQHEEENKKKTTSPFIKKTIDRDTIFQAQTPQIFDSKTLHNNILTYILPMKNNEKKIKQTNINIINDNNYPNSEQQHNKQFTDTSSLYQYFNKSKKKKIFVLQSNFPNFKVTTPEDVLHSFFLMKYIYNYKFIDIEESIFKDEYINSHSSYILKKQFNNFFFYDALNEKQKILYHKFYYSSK

C[C@](O)(CO)[C@H](O)C[C@@H](F)P(=O)(O)O [5b, (5S)-D-methylerythritol monofluoromethyl phosphonate]
IC50 (IspD [1]): 700 ± 100 µM
IC50 (IspD [2]): 1300 ± 700 µM
